{
  "source": "patent US20190343190A1",
  "about": "“MATERIALS INCLUDING POLYMERIC FIBERS INCORPORATING MICROCAPSULES OR NANOCAPSULES INCLUDING AN ESSENTIAL OIL” (President and Fellows of Harvard College, priority 2016, published 2019)",
  "key": {"leucine dehydrogenase": {"molecular_target": "leucine dehydrogenase (Bacillus subtilis, UniProt P54531)", "sequence (P54531 whole entry)": "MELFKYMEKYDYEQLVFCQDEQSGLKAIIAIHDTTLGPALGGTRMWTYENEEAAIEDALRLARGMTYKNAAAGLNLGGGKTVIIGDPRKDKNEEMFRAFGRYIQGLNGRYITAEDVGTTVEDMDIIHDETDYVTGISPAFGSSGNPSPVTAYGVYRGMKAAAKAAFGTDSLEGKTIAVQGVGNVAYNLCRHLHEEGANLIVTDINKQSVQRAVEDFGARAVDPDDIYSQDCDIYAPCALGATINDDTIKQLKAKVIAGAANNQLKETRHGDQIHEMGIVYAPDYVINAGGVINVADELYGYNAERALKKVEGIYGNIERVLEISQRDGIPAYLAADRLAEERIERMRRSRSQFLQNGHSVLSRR", "conditions": "cited from earlier work"}, "[1]": {"assay": "Polystyrene-water partition of citral", "format": "physicochemical", "source_text": "The polymer matrix should not dissolve through bulk degradation or boundary degradation as it is very inert and unreactive, plus divinylbenzene provides additional stability. […] This is extremely high: its predicts the existence of approximately 5000 molecules of citral within the nanocapsule core or polystyrene shell for every molecule in surrounding water. This dictates a fixed equilibrium between concentration in polystyrene nanocapsule Cp and surrounding water Cw given by the equation: Cp/Cw=10^3.7=5011"}},
  "data": [
    {"smiles": "CC(C)=CCCC(C)=CC=O", "note": "[citral]", "values": [
      {"measurement": "Binding affinity compared with branched chain amino acids", "setting": "leucine dehydrogenase", "value": "higher binding affinity"},
      {"measurement": "Molecules within the nanocapsule core or polystyrene shell for every molecule in surrounding water", "setting": "[1]", "value": "approximately 5000"}
    ]}
  ]
}
